According to patent US8846739B2, “TGR5 agonists” (Exelixis Patent Company LLC, priority 2009, dated 2014):
Structures can show the parent of a compound that is named as a salt.

Legend:
h-TGR5 = biological target: T1, h-TGR5 (Homo sapiens, UniProt Q8TDU6); experiment: TGR5 cAMP Assay using Cisbio cAMP Dynamic 2 htrf assay kit; type: cell-based; conditions: hTGR5CRE-luc HEK 293 cells
T1 sequence (Q8TDU6 1-330): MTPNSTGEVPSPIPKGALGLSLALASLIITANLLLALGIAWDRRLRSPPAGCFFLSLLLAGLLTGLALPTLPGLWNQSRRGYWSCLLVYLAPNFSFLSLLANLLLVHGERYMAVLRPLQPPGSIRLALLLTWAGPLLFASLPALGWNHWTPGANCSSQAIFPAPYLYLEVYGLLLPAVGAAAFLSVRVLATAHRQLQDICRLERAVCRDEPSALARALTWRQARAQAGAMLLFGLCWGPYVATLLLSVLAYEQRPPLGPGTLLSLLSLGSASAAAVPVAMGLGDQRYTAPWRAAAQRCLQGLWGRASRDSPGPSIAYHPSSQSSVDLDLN

human TGR5 (h-TGR5) = biological target: T2, human TGR5 (h-TGR5) (Homo sapiens, UniProt Q8TDU6); experiment: TGR5/CRE-Luciferase Assay; type: cell-based; conditions: HEK 293 hTGR5/CRE-Luc cells, 6 hours incubation, read-out: CRE-Luc Agonist (EC50)
T2 sequence (Q8TDU6 1-330): T1 sequence (Q8TDU6 1-330)
In short: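 HEK 293 CRE-Luciferase cells stably expressing the receptor, plated in DMEM 18-20 h before assay, then exposed to serially diluted compounds (DMEM with 5% DMSO) for 6 h. Luciferase read-out after lysis; EC50 from dose-response.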

| Compound | EC50 (h-TGR5) | EC50 (human TGR5 (h-TGR5)) |
| --- | --- | --- |
| COc1cc(C(C)(C)c2cnc(SCc3c(F)cc(S(=O)(=O)N(CCC[N+]45CCN(CC4)CC5)[C@H](C)C(=O)O)cc3F)n2-c2ccc(F)cc2)ccc1Cl [Compound 22, (R)-1-(3-(N-(1-carboxyethyl)-4-((5-(2-(4-chloro-3-methoxyphenyl)propan-2-yl)-1-(4-fluorophenyl)-1H-Imidazol-2-ylthio)methyl)-3,5-difluorophenylsulfonamido)propyl)-4-aza-1-azoniabicyclo[2.2.2]octane chloride] | < 100 nM | < 100 nM |
| COc1cc(C(C)(C)c2cnc(SCc3c(F)cc(C(=O)NCC[N+](C)(C)C)cc3Cl)n2-c2ccc(F)cc2)ccc1Cl [Example 1, 2-(3-chloro-4-((S-(2-(4-chloro-3-methoxyphenyl)propan-2-yl)-1-(4-fluorophenyl)-1H-imidazol-2-ylthio)methyl)-S-fluorobenzamido)-N,N,N-trimethylethanaminium chloride] | < 100 nM | < 100 nM |
| COc1cc(-n2c(C(C)(C)c3ccc(S(N)(=O)=O)c(Cl)c3)cnc2SCc2c(F)cc(C(=O)NCC[N+](C)(C)C)cc2Cl)ccc1F [Example 1a, 2-{[(4-{[(5-{1-[4-(aminosulfonyl)-3-chlorophenyl]-1-methylethyl}-1-[4-fluoro-3-(methyloxy)phenyl]-1H-imidazol-2-yl)thio]methyl}-3-chloro-5-fluorophenyl)carbonyl]amino}-N,N,N-trimethylethanaminium] | < 100 nM | < 100 nM |
| COc1cc(-n2c(C(C)(C)c3ccc4onc(N)c4c3)cnc2SCc2c(F)cc(C(=O)NCC[N+](C)(C)C)cc2Cl)ccc1F [Example 1b, 2-[({4-[({5-[1-(3-amino-1,2-benzisoxazol-5-yl)-1-methylethyl]-1-[4-fluoro-3-(methyloxy)phenyl]-1H-imidazol-2-yl}thio)methyl]-3-chloro-5-fluorophenyl}carbonyl)amino]-N,N,N-trimethylethanaminium] | < 100 nM | < 100 nM |
| CC(C)(c1ccc2onc(N)c2c1)c1cnc(SCc2c(F)cc(C(=O)NCC[N+](C)(C)C)cc2Cl)n1-c1ccc(F)cc1 [Example 1c, 2-[({4-[({5-[1-(3-amino-1,2-benzisoxazol-5-yl)-1-methylethyl]-1-(4-fluorophenyl)-1H-imidazol-2-yl}thio)methyl]-3-chloro-5-fluorophenyl}carbonyl)amino]-N,N,N-trimethylethanaminium] | < 100 nM | < 100 nM |
| COc1cc(C(C)(C)c2cnc(COc3c(F)cc(C(=O)NCC[N+](C)(C)C)cc3Cl)n2-c2ccc(F)cc2)ccc1Cl [Example 1e, 2-({[3-chloro-4-({[5-{1-[4-chloro-3-(methyloxy)phenyl]-1-methylethyl}-1-(4-fluorophenyl)-1H-imidazol-2-yl]methyl}oxy)-5-fluorophenyl]carbonyl}amino)-N,N,N-trimethylethanaminium] | < 100 nM | < 100 nM |
| COc1cc(C(C)(C)c2cnc(CCc3c(F)cc(C(=O)NCC[N+](C)(C)C)cc3Cl)n2-c2ccc(F)cc2)ccc1Cl [Example 1f, 2-{[(3-chloro-4-{2-[5-{1-[4-chloro-3-(methyloxy)phenyl]-1-methylethyl}-1-(4-fluorophenyl)-1H-imidazol-2-yl]ethyl}-5-fluorophenyl)carbonyl]amino}-N,N,N-trimethylethanaminium] | < 100 nM | < 100 nM |
| COc1cc(C(C)(C)c2cnc(SCc3c(F)cc(C(=O)NCC[N+]45CCN(CC4)CC5)cc3Cl)n2-c2ccc(F)cc2)ccc1Cl [Example 2, 1-(2-(3-chloro-4-((5-(2-(4-chloro-3-methoxyphenyl)propan-2-yl)-1-(4-fluorophenyl)-1H-imidazol-2-ylthio)methyl)-5-fluorobenzamido)ethyl)-4-aza-1-azoniabicyclo-[2.2.2]octane chloride hydrochloride] | < 100 nM | < 100 nM |

Next, values leading:

| EC50 (h-TGR5) | EC50 (human TGR5 (h-TGR5)) | Compound |
| --- | --- | --- |
| < 100 nM | < 100 nM | CC[N+](CC)(CC)CCOc1cc(F)c(CSc2ncc(C(C)(C)c3ccc(Cl)c(OC)c3)n2-c2ccc(F)cc2)c(F)c1 [Compound 20a, 2-(4-((5(2-(4-chloro-3-methoxyphenyl)propan-2-yl)-(4-fluorophenyl)-1H-imidazol-2-ylthio)methyl)-3,5-difluorophenoxy)-N,N,N-triethylethanaminium chloride] |
| < 100 nM | < 100 nM | COc1cc(C(C)(C)c2cnc(SCc3c(F)cc(S(=O)(=O)N(CCCC[N+]45CCN(CC4)CC5)[C@H](C)C(=O)O)cc3F)n2-c2ccc(F)cc2)ccc1Cl [Compound 22a, N-[4-(4-aza-1-azoniabicyclo[2.2.2]oct-1-yl)butyl]-N-{[4-({[5-{1-[4-chloro-3-(methyloxy)phenyl]-1-methylethyl}-1-(4-fluorophenyl)-1H-imidazol-2-yl]thio}methyl)-3,5-difluorophenyl]sulfonyl}-D-alanine] |
| < 100 nM | < 100 nM | COc1cc(C(C)(C)c2cnc(SCc3c(F)cc(C(=O)NCC[N+]45CCN(CC4)CC5)cc3Cl)n2-c2ccc(F)cc2)ccc1F [Example 2a, 1-[2-({[3-chloro-5-fluoro-4-({[5-{1-[4-fluoro-3-(methyloxy)phenyl]-1-methylethyl}-1-(4-fluorophenyl)-1H-imidazol-2-yl]thio}methyl)phenyl]carbonyl}amino)ethyl]-4-aza-1-azoniabicyclo[2.2.2]octane] |
| < 100 nM | < 100 nM | COc1cc(-n2c(C(C)(C)c3ccc(Cl)c(Cl)c3)cnc2SCc2c(F)cc(C(=O)NCC[N+]34CCN(CC3)CC4)cc2Cl)ccc1F [Example 2b, 1-{2-[({3-chloro-4-[({5-[1-(3,4-dichlorophenyl)-1-methylethyl]-1-[4-fluoro-3-(methyloxy)phenyl]-1H-imidazol-2-yl}thio)methyl]-5-fluorophenyl}carbonyl)amino]ethyl}-4-aza-1-azoniabicyclo[2.2.2]octane] |
| < 100 nM | < 100 nM | COc1cc(C(C)(C)c2cnc(SCc3c(F)cc(C(=O)NC4CC[N+](C)(C)CC4)cc3Cl)n2-c2ccc(F)cc2)ccc1Cl [Example 2c, 4-({[3-chloro-4-({[5-{1-[4-chloro-3-(methyloxy)phenyl]-1-methylethyl}-1-(4-fluorophenyl)-1H-imidazol-2-yl]thio}methyl)-5-fluorophenyl]carbonyl}amino)-1,1-dimethylpiperidinium] |
| < 100 nM | < 100 nM | COc1cc(C(C)(C)c2cnc(SCc3c(F)cc(C(=O)N[C@H]4CCC[N+](C)(C)C4)cc3Cl)n2-c2ccc(F)cc2)ccc1Cl [Example 2d, (3S)-3-({[3-chloro-4-({[5-{1-[4-chloro-3-(methyloxy)phenyl]-1-methylethyl}-1-(4-fluorophenyl)-1H-imidazol-2-yl]thio}methyl)-5-fluorophenyl]carbonyl}amino)-1,1-dimethylpiperidinium] |
| < 100 nM | < 100 nM | COc1cc(C(C)(C)c2cnc(SCc3c(F)cc(C(=O)N[C@H]4CC[N+](C)(Cc5ccc(F)cc5)C4)cc3Cl)n2-c2ccc(F)cc2)ccc1Cl (stereo partly drawn) [Example 2e, (3S)-3-({[3-chloro-4-({[5-{1-[4-chloro-3-(methyloxy)phenyl]-1-methylethyl}-1-(4-fluorophenyl)-1H-imidazol-2-yl]thio}methyl)-5-fluorophenyl]carbonyl}amino)-1-[(4-fluorophenyl)methyl]-1-methylpyrrolidinium] |
| < 100 nM | < 100 nM | COc1cc(C(C)(C)c2cnc(SCc3c(F)cc(C(=O)N[C@H]4CC[N+](C)(C)C4)cc3Cl)n2-c2ccc(F)cc2)ccc1Cl [Example 2f, (3S)-3-({[3-chloro-4-({[5-{1-[4-chloro-3-(methyloxy)phenyl]-1-methylethyl}-1-(4-fluorophenyl)-1H-imidazol-2-yl]thio}methyl)-5-fluorophenyl]carbonyl}amino)-1,1-dimethylpyrrolidinium] |
| < 100 nM | < 100 nM | COc1cc(C(C)(C)c2cnc(SCc3c(F)cc(C(=O)N[C@@H]4CCC[N+](C)(C)C4)cc3Cl)n2-c2ccc(F)cc2)ccc1Cl [Example 2g, (3R)-3-({[3-chloro-4-({[5-{1-[4-chloro-3-(methyloxy)phenyl]-1-methylethyl}-1-(4-fluorophenyl)-1H-imidazol-2-yl]thio}methyl)-5-fluorophenyl]carbonyl}amino)-1,1-dimethylpiperidinium] |
| < 100 nM | < 100 nM | COc1cc(C(C)(C)c2cnc(SCc3c(F)cc(C(=O)N[C@@H]4CC[N+](C)(C)C4)cc3Cl)n2-c2ccc(F)cc2)ccc1Cl [Example 2h, (3R)-3-({[3-chloro-4-({[5-{1-[4-chloro-3-(methyloxy)phenyl]-1-methylethyl}-1-(4-fluorophenyl)-1H-imidazol-2-yl]thio}methyl)-5-fluorophenyl]carbonyl}amino)-1,1-dimethylpyrrolidinium] |
| 100 to 1000 nM | 100 to 1000 nM | COc1cc(C(C)(C)c2cnc(SCc3c(F)cc(C(=O)NCC[N+]4(C)CC[N+](C)(C)CC4)cc3Cl)n2-c2ccc(F)cc2)ccc1Cl [Example 2i, 1-[2-({[3-chloro-4-({[5-{1-[4-chloro-3-(methyloxy)phenyl]-1-methylethyl}-1-(4-fluorophenyl)-1H-imidazol-2-yl]thio}methyl)-5-fluorophenyl]carbonyl}amino)ethyl]-1,4,4-trimethylpiperazinediium] |
